Assay results: patent publication US10633353B2, “Polymerizable compound, composition, polymer, optically anisotropic body, liquid crystal display element, and organic EL display” (DIC Corporation, priority 2014, dated 2020)

Test: Preservation stability of the coating liquid
Type: physicochemical
Conditions: coating liquid stored for 2 months shielded from light at 0° C.; appearance and GPC
Description: The preservation stability of the coating liquid was evaluated on a scale of A to E on the basis of the state of the coating liquid that was stored for 2 months under a condition where the coating liquid was shielded from light at 0° C.
A: No visual change in the appearance of the coating liquid was confirmed. A GPC analysis of the coating liquid confirmed that the change in the composition of the coating liquid was 1% or less.
B: No visual change in the appearance of the coating liquid was confirmed. A GPC analysis of the coating liquid confirmed that the change in the composition of the coating liquid was 2% or less.
C: A visual change in the appearance of the coating liquid was confirmed; a trace amount of insoluble components were confirmed, or a GPC analysis of the coating liquid confirmed that the change in the composition of the coating liquid was 3% or less.
D: A visual change in the appearance of the coating liquid was confirmed; insoluble components were confirmed. The ratio of the weight of the insoluble components to the total solid content was 5% or less.
E: A large amount of insoluble components were visually confirmed. The ratio of the weight of the insoluble components to the total solid content was 5% or more.

**Q.** Which Preservation stability does the source give for `C=CC(=O)OCCCCCCOc1ccc(C(=O)OCCc2ccc(OC(=O)c3ccc(OCCCCCCOC(=O)C=C)cc3)c(/C=N/Nc3nc4ccccc4s3)c2)cc1` [1-c-1] here?
**A.** Its Preservation stability is “A (No visual change in the appearance of the coating liquid was confirmed. A GPC analysis of the coating liquid confirmed that the change in the composition of the coating liquid was 1% or less.)”.

**Q.** Which Preservation stability does the source give for `C=CC(=O)OCCCOc1ccc(C(=O)OCCc2ccc(OC(=O)c3ccc(OCCCOC(=O)C=C)cc3)c(/C=N/Nc3nc4ccccc4s3)c2)cc1` [1-c-2] here?
**A.** The Preservation stability was “A (No visual change in the appearance of the coating liquid was confirmed. A GPC analysis of the coating liquid confirmed that the change in the composition of the coating liquid was 1% or less.)”.

**Q.** For `C=CC(=O)OCCCCOc1ccc(C(=O)OCCc2ccc(OC(=O)c3ccc(OCCCCOC(=O)C=C)cc3)c(/C=N/Nc3nc4ccccc4s3)c2)cc1` [1-c-3], which Preservation stability is on record?
**A.** Its Preservation stability is “A (No visual change in the appearance of the coating liquid was confirmed. A GPC analysis of the coating liquid confirmed that the change in the composition of the coating liquid was 1% or less.)”.

**Q.** For `C=CC(=O)OCCCCCOc1ccc(C(=O)OCCc2ccc(OC(=O)c3ccc(OCCCCCOC(=O)C=C)cc3)c(/C=N/Nc3nc4ccccc4s3)c2)cc1` [1-c-4], which Preservation stability is on record?
**A.** Its Preservation stability is “A (No visual change in the appearance of the coating liquid was confirmed. A GPC analysis of the coating liquid confirmed that the change in the composition of the coating liquid was 1% or less.)”.

**Q.** For `C=C(C)C(=O)OCCCOc1ccc(C(=O)OCCc2ccc(OC(=O)c3ccc(OCCCOC(=O)C(=C)C)cc3)c(/C=N/Nc3nc4ccccc4s3)c2)cc1` [1-c-5], which Preservation stability is on record?
**A.** The Preservation stability was “A (No visual change in the appearance of the coating liquid was confirmed. A GPC analysis of the coating liquid confirmed that the change in the composition of the coating liquid was 1% or less.)”.

**Q.** For `C=C(C)C(=O)OCCCCOc1ccc(C(=O)OCCc2ccc(OC(=O)c3ccc(OCCCCOC(=O)C(=C)C)cc3)c(/C=N/Nc3nc4ccccc4s3)c2)cc1` [1-c-6], which Preservation stability is on record?
**A.** Its Preservation stability is “A (No visual change in the appearance of the coating liquid was confirmed. A GPC analysis of the coating liquid confirmed that the change in the composition of the coating liquid was 1% or less.)”.

**Q.** Which Preservation stability does the source give for `C=C(C)C(=O)OCCCCCOc1ccc(C(=O)OCCc2ccc(OC(=O)c3ccc(OCCCCCOC(=O)C(=C)C)cc3)c(/C=N/Nc3nc4ccccc4s3)c2)cc1` [1-c-7] here?
**A.** Its Preservation stability is “A (No visual change in the appearance of the coating liquid was confirmed. A GPC analysis of the coating liquid confirmed that the change in the composition of the coating liquid was 1% or less.)”.

**Q.** For `C=C(C)C(=O)OCCCCCCOc1ccc(C(=O)OCCc2ccc(OC(=O)c3ccc(OCCCCCCOC(=O)C(=C)C)cc3)c(/C=N/Nc3nc4ccccc4s3)c2)cc1` [1-c-8], which Preservation stability is on record?
**A.** The Preservation stability was “A (No visual change in the appearance of the coating liquid was confirmed. A GPC analysis of the coating liquid confirmed that the change in the composition of the coating liquid was 1% or less.)”.

**Q.** For `C=CC(=O)OCCCOc1ccc(C(=O)OCCc2ccc(CCOC(=O)c3ccc(OCCCOC(=O)C=C)cc3)c(/C=N/Nc3nc4ccccc4s3)c2)cc1` [1-c-9], which Preservation stability is on record?
**A.** The Preservation stability was “A (No visual change in the appearance of the coating liquid was confirmed. A GPC analysis of the coating liquid confirmed that the change in the composition of the coating liquid was 1% or less.)”.

**Q.** Which Preservation stability does the source give for `C=CC(=O)OCCCCOc1ccc(C(=O)OCCc2ccc(CCOC(=O)c3ccc(OCCCCOC(=O)C=C)cc3)c(/C=N/Nc3nc4ccccc4s3)c2)cc1` [1-c-10] here?
**A.** The Preservation stability was “A (No visual change in the appearance of the coating liquid was confirmed. A GPC analysis of the coating liquid confirmed that the change in the composition of the coating liquid was 1% or less.)”.

**Q.** Which Preservation stability does the source give for `C=CC(=O)OCCCCCOc1ccc(C(=O)OCCc2ccc(CCOC(=O)c3ccc(OCCCCCOC(=O)C=C)cc3)c(/C=N/Nc3nc4ccccc4s3)c2)cc1` [1-c-11] here?
**A.** Its Preservation stability is “A (No visual change in the appearance of the coating liquid was confirmed. A GPC analysis of the coating liquid confirmed that the change in the composition of the coating liquid was 1% or less.)”.

**Q.** With `C=CC(=O)OCCCCCCOc1ccc(C(=O)OCCc2ccc(CCOC(=O)c3ccc(OCCCCCCOC(=O)C=C)cc3)c(/C=N/Nc3nc4ccccc4s3)c2)cc1` [1-c-12] as the molecule, how does the Preservation stability read?
**A.** The Preservation stability was “A (No visual change in the appearance of the coating liquid was confirmed. A GPC analysis of the coating liquid confirmed that the change in the composition of the coating liquid was 1% or less.)”.

**Q.** For `C=CC(=O)OCCCOc1ccc(OC(=O)C2CCC(C(=O)OCCc3ccc(OC(=O)C4CCC(C(=O)Oc5ccc(OCCCOC(=O)C=C)cc5)CC4)c(C=NNc4nc5ccccc5s4)c3)CC2)cc1` (centres unmarked) [1-c-13], which Preservation stability is on record?
**A.** The Preservation stability was “A (No visual change in the appearance of the coating liquid was confirmed. A GPC analysis of the coating liquid confirmed that the change in the composition of the coating liquid was 1% or less.)”.

**Q.** Which Preservation stability does the source give for `C=CC(=O)OCCCCOc1ccc(OC(=O)C2CCC(C(=O)OCCc3ccc(OC(=O)C4CCC(C(=O)Oc5ccc(OCCCCOC(=O)C=C)cc5)CC4)c(C=NNc4nc5ccccc5s4)c3)CC2)cc1` (centres unmarked) [1-c-14] here?
**A.** The Preservation stability was “A (No visual change in the appearance of the coating liquid was confirmed. A GPC analysis of the coating liquid confirmed that the change in the composition of the coating liquid was 1% or less.)”.

**Q.** With `C=CC(=O)OCCCCCOc1ccc(OC(=O)C2CCC(C(=O)OCCc3ccc(OC(=O)C4CCC(C(=O)Oc5ccc(OCCCCCOC(=O)C=C)cc5)CC4)c(C=NNc4nc5ccccc5s4)c3)CC2)cc1` (centres unmarked) [1-c-15] as the molecule, how does the Preservation stability read?
**A.** The Preservation stability was “A (No visual change in the appearance of the coating liquid was confirmed. A GPC analysis of the coating liquid confirmed that the change in the composition of the coating liquid was 1% or less.)”.

**Q.** For `C=CC(=O)OCCCOc1ccc(C(=O)OCCc2ccc(OC(=O)c3ccc(OCCCOC(=O)C=C)cc3)c(/C=N/Nc3nc4cc([N+](=O)[O-])ccc4s3)c2)cc1` [1-c-23], which Preservation stability is on record?
**A.** Its Preservation stability is “B (No visual change in the appearance of the coating liquid was confirmed. A GPC analysis of the coating liquid confirmed that the change in the composition of the coating liquid was 2% or less.)”.

**Q.** Which Preservation stability does the source give for `C=CC(=O)OCCCOc1ccc(C(=O)OCCc2ccc(OC(=O)c3ccc(OCCCOC(=O)C=C)cc3)c(/C=N/Nc3nc4cc(Cl)ccc4s3)c2)cc1` [1-c-24] here?
**A.** Its Preservation stability is “B (No visual change in the appearance of the coating liquid was confirmed. A GPC analysis of the coating liquid confirmed that the change in the composition of the coating liquid was 2% or less.)”.

**Q.** Which Preservation stability does the source give for `C=CC(=O)OCCCOc1ccc(C(=O)OCCc2ccc(OC(=O)c3ccc(OCCCOC(=O)C=C)cc3)c(/C=N/Nc3nc4cc(C#N)ccc4s3)c2)cc1` [1-c-25] here?
**A.** The Preservation stability was “B (No visual change in the appearance of the coating liquid was confirmed. A GPC analysis of the coating liquid confirmed that the change in the composition of the coating liquid was 2% or less.)”.

**Q.** With `C=CC(=O)OCCCOc1ccc(C(=O)OCCc2ccc(OC(=O)c3ccc(OCCCOC(=O)C=C)cc3)c(/C=N/Nc3nc4cc(CCC)ccc4s3)c2)cc1` [1-c-26] as the molecule, how does the Preservation stability read?
**A.** Its Preservation stability is “A (No visual change in the appearance of the coating liquid was confirmed. A GPC analysis of the coating liquid confirmed that the change in the composition of the coating liquid was 1% or less.)”.

**Q.** Which Preservation stability does the source give for `C=CC(=O)OCCCCOc1ccc(C(=O)OCCc2ccc(OC(=O)c3ccc(OCCCCOC(=O)CC)cc3)c(/C=N/Nc3cc4ccccc4[nH]3)c2)cc1` [1-c-28] here?
**A.** Its Preservation stability is “B (No visual change in the appearance of the coating liquid was confirmed. A GPC analysis of the coating liquid confirmed that the change in the composition of the coating liquid was 2% or less.)”.

**Q.** Which Preservation stability does the source give for `C=CC(=O)OCCCCCOc1ccc(C(=O)OCCc2ccc(OC(=O)c3ccc(OCCCCCOC(=O)C=C)cc3)c(/C=N/Nc3nc4cc(O)c([N+](=O)[O-])cc4[nH]3)c2)cc1` [1-c-29] here?
**A.** The Preservation stability was “B (No visual change in the appearance of the coating liquid was confirmed. A GPC analysis of the coating liquid confirmed that the change in the composition of the coating liquid was 2% or less.)”.

**Q.** For `C=CC(=O)OCCCCCCOc1ccc(C(=O)OCCc2ccc(OC(=O)c3ccc(OCCCCCCOC(=O)C=C)cc3)c(/C=N/Nc3nc4cc([N+](=O)[O-])ccc4s3)c2)cc1` [1-c-30], which Preservation stability is on record?
**A.** Its Preservation stability is “B (No visual change in the appearance of the coating liquid was confirmed. A GPC analysis of the coating liquid confirmed that the change in the composition of the coating liquid was 2% or less.)”.

**Q.** With `C=CC(=O)OCCCCCCOc1ccc(C(=O)OCCc2ccc(OC(=O)c3ccc(OCCCCCCOC(=O)C=C)cc3)c(/C=N/Nc3ccc(C#Cc4ccccc4)cc3)c2)cc1` [1-c-31] as the molecule, how does the Preservation stability read?
**A.** The Preservation stability was “B (No visual change in the appearance of the coating liquid was confirmed. A GPC analysis of the coating liquid confirmed that the change in the composition of the coating liquid was 2% or less.)”.

**Q.** Which Preservation stability does the source give for `C=CC(=O)OCCCCCCOc1ccc(C(=O)OCCc2ccc(OC(=O)c3ccc(OCCCCCCOC(=O)C=C)cc3)c(/C=N/Nc3ccc4ccccc4c3)c2)cc1` [1-c-32] here?
**A.** Its Preservation stability is “B (No visual change in the appearance of the coating liquid was confirmed. A GPC analysis of the coating liquid confirmed that the change in the composition of the coating liquid was 2% or less.)”.

**Q.** For `C=CC(=O)OCCCCCCOc1ccc(C(=O)OCCc2ccc(OC(=O)c3ccc(OCCCCCCOC(=O)C=C)cc3)c(/C=N/Nc3nc4ccc5ccccc5c4s3)c2)cc1` [1-c-33], which Preservation stability is on record?
**A.** Its Preservation stability is “B (No visual change in the appearance of the coating liquid was confirmed. A GPC analysis of the coating liquid confirmed that the change in the composition of the coating liquid was 2% or less.)”.

**Q.** For `C=CC(=O)OCCCCCCOc1ccc(C(=O)OCCc2ccc(OC(=O)c3ccc(OCCCCCCOC(=O)C=C)cc3)c(/C=N/Nc3nc(-c4ccc5ccccc5c4)cs3)c2)cc1` [1-c-34], which Preservation stability is on record?
**A.** Its Preservation stability is “B (No visual change in the appearance of the coating liquid was confirmed. A GPC analysis of the coating liquid confirmed that the change in the composition of the coating liquid was 2% or less.)”.
